Reference: patent US9980943B2, “Methods of treating muscular dystrophy” (BOARD OF REGENTS OF THE NEVADA SYSTEM OF HIGHER EDUCATION, …, priority 2013, dated 2018)

Key:
Format in all cases: cell-based, mouse
[1] = system: β-galactosidase in CMV-LacZ C2C12 myoblasts; assay: CMV-LacZ secondary screen in C2C12 myoblasts (β-Gal stabilizing assay); details: CMV-LacZ C2C12 myoblasts
Summary of the method: (§1)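 β-gal stabilization was measured in C2C12 myoblasts or myotubes stably transfected with a CMV-driven LacZ construct, using the FDG β-gal assay. Compounds were tested in dose-response at 0.5, 1, 5, 10, 20 and 40 μM, with two replicates per point.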

[2] = system: α7 integrin (LacZ reporter in α7βgal+/− myoblasts); assay: Myoblast α7+/LacZ integrin FDG assay (Burkin assay in myoblasts, 96-well); details: α7+/LacZ myoblasts, 96-well
[3] = system: α7 integrin (LacZ reporter in α7+/LacZ myotubes); assay: Myotube α7 integrin FDG assay (Burkin assay in myotubes, 96-well); details: myotubes
[4] = system: β-galactosidase in CMV-LacZ C2C12 myotubes; assay: CMV-LacZ secondary screen in C2C12 myotubes (β-Gal stabilizing assay); details: C2C12 CMV-LacZ myotubes, fold relative to DMSO
Summary of the method: as §1

Row | Structure (SMILES) | CMV-LACZ in Myoblasts (β-galactosidase activity relative to DMSO) ([1]; 0.5 uM) | CMV-LACZ in Myoblasts (β-galactosidase activity relative to DMSO) ([1]; 1 uM) | CMV-LACZ in Myoblasts (β-galactosidase activity relative to DMSO) ([1]; 5 uM) | CMV-LACZ in Myoblasts (β-galactosidase activity relative to DMSO) ([1]; 10 uM) | CMV-LACZ in Myoblasts (β-galactosidase activity relative to DMSO) ([1]; 20 uM) | CMV-LACZ in Myoblasts (β-galactosidase activity relative to DMSO) ([1]; 40 uM) | Burkin Assay in Myoblasts, signal relative to DMSO ([2]; 0.5 uM) | Burkin Assay in Myoblasts, signal relative to DMSO ([2]; 1 uM) | Burkin Assay in Myoblasts, signal relative to DMSO ([2]; 5 uM) | Burkin Assay in Myoblasts, signal relative to DMSO ([2]; 10 uM) | Burkin Assay in Myoblasts, signal relative to DMSO ([2]; 20 uM) | Burkin Assay in Myoblasts, signal relative to DMSO ([2]; 40 uM) | Burkin Assay in Myotubes, α7 integrin LacZ reporter signal relative to DMSO ([3]; 0.5 uM) | Burkin Assay in Myotubes, α7 integrin LacZ reporter signal relative to DMSO ([3]; 1 uM) | Burkin Assay in Myotubes, α7 integrin LacZ reporter signal relative to DMSO ([3]; 5 uM) | Burkin Assay in Myotubes, α7 integrin LacZ reporter signal relative to DMSO ([3]; 10 uM) | Burkin Assay in Myotubes, α7 integrin LacZ reporter signal relative to DMSO ([3]; 20 uM) | Burkin Assay in Myotubes, α7 integrin LacZ reporter signal relative to DMSO ([3]; 40 uM) | CMV-LACZ in Myotubes, signal relative to DMSO ([4]; 0.5 uM) | CMV-LACZ in Myotubes, signal relative to DMSO ([4]; 1 uM) | further results
1 | CC(O)CNc1nc2c(c(=O)n(Cc3ccc(Br)cc3)c(=O)n2C)n1C (stereo not drawn) [MLS001212319-01] | 0.9129 | 1.2040 | 1.0840 | 0.8600 | 1.2056 | 1.0259 | 1.05 | 1.026 | 0.9412 | 0.8826 | 0.8529 | 0.782 | 1.134 | 1.139 | 0.9476 | 0.9201 | 0.7396 | 0.631 | 1.1524 | 0.8152 | CMV-LACZ in Myotubes, signal relative to DMSO ([4]; 5 uM): 0.9525; CMV-LACZ in Myotubes, signal relative to DMSO ([4]; 10 uM): 0.9253; CMV-LACZ in Myotubes, signal relative to DMSO ([4]; 20 uM): 0.9965; CMV-LACZ in Myotubes, signal relative to DMSO ([4]; 40 uM): 1.0706
2 | CC(C)c1ccc(NC(=O)CN2C(=O)c3ccccc3S2(=O)=O)cc1 [MLS001229477-01] | 1.0283 | 1.1345 | 1.1078 | 1.1311 | 1.0674 | 0.8800 | 0.8703 | 0.8296 | 1.367 | 0.9454 | 0.9634 | 0.9019 | 0.8015 | 0.9368 | 0.9702 | 0.9015 | 0.8376 | 0.8339 | 1.0126 | 1.1095 | CMV-LACZ in Myotubes, signal relative to DMSO ([4]; 5 uM): 0.9250; CMV-LACZ in Myotubes, signal relative to DMSO ([4]; 10 uM): 0.9587; CMV-LACZ in Myotubes, signal relative to DMSO ([4]; 20 uM): 0.9622; CMV-LACZ in Myotubes, signal relative to DMSO ([4]; 40 uM): 0.9611
3 | CC(C)(C)NC(=O)NC(=O)CN1CCN(Cc2ccccc2)CC1 [MLS001006302-01] | 0.9343 | 0.7663 | 0.8911 | 1.0767 | 0.9502 | 0.7646 | 1.123 | 0.9303 | 0.9535 | 1.172 | 0.973 | 0.9414 | 0.9822 | 0.9373 | 1.039 | 1.212 | 0.7835 | 1.078 | 1.0229 | 0.9143 | CMV-LACZ in Myotubes, signal relative to DMSO ([4]; 5 uM): 0.9398; CMV-LACZ in Myotubes, signal relative to DMSO ([4]; 10 uM): 1.0122; CMV-LACZ in Myotubes, signal relative to DMSO ([4]; 20 uM): 0.9010; CMV-LACZ in Myotubes, signal relative to DMSO ([4]; 40 uM): 0.9720
4 | CCOc1ccc2nc(Cl)sc2c1 [MLS000678673-01] | 1.2106 | 1.1914 | 1.0561 | 0.8991 | 0.8674 | 0.9656 | 0.9325 | 1.054 | 1.044 | 0.9687 | 1.173 | 1.134 | 0.9772 | 0.9802 | 0.9767 | 0.9606 | 0.8655 | 0.781 | 1.1229 | 1.0286 | CMV-LACZ in Myotubes, signal relative to DMSO ([4]; 5 uM): 0.7918; CMV-LACZ in Myotubes, signal relative to DMSO ([4]; 10 uM): 0.9367; CMV-LACZ in Myotubes, signal relative to DMSO ([4]; 20 uM): 0.9635; CMV-LACZ in Myotubes, signal relative to DMSO ([4]; 40 uM): 1.1835
